Test results from patent US9801918B2, “Methods of treatment using extracts of Anisomeles heyneana” (Council of Scientific & Industrial Research, priority 2011, dated 2017).
In brackets after ≈: the same amount, converted by molar mass.

What was measured:
M. tuberculosis = assay: Anti-mycobacterial activity (inhibition of growth of M. tuberculosis); assay type: cell-based; conditions: concentration exhibiting 90% inhibition against growth of M. tuberculosis, 'Not active' at 100 μg/ml; for IC90: Mycobacterium tuberculosis, read-out: IC90 value determined against M. tuberculosis
[1] = system: human monocytic leukaemia Thp-1 cell lines; assay: Anti proliferative activity-MTT cell proliferation assay on human Thp-1 cell line; assay type: cell-based; conditions: for inhibition at 100 µg/mL: Homo sapiens, THP-1, 72 h; for inhibition at 100 µg/mL / % Inhibition on Thp-1 cell line at 100 μg/ml: 100 μg/ml, 72 h, MTT, average±standard deviation, triplicate

Compound	IC90 (M. tuberculosis)	inhibition at 100 µg/mL [1]	IC90 value determined against M. tuberculosis (M. tuberculosis)	% Inhibition on Thp-1 cell line at 100 μg/ml [1]	anti proliferative activity (in words) ([1]; qualitative statement)
NNC(=O)c1ccncc1 [Isoniazid, reference compound]	0.05 ± 0.003 µg/mL (≈ 0.365 µM)	–	–	–	–
CC(=O)O[C@H]1C(=O)[C@@]2(C)[C@H]([C@H](OC(=O)c3ccccc3)[C@]3(O)C[C@H](OC(=O)[C@H](O)[C@@H](NC(=O)c4ccccc4)c4ccccc4)C(C)=C1C3(C)C)[C@]1(OC(C)=O)CO[C@@H]1C[C@@H]2O [Paclitaxel, reference compound]	–	61%	–	–	–
C[C@]12CCC[C@](C)(C(=O)O)[C@@H]1CC[C@@]13C[C@@H](CC[C@@H]12)[C@@](O)(CO)C3 [Compound 2, phyllocladan-16α,17-dihydroxy-19-oic acid]	–	59 to 97%	Not active^c	59.02 ± 0.8725%	comparable to well known drug, paclitaxel
C=C1C(=O)O[C@H]2/C=C(\C)C[C@@H]3C=C(CC/C=C(\C)CC[C@H]12)C(=O)O3 [Compound 1, (1R,3E,5S,9R,12E)-3,12-Dimethyl-8-methylene-6,18-dioxatricyclo[14.2.1.05,9]nonadeca-3,12,16(19)-triene-7,17-dione]	6.53 µg/mL (≈ 19.9 µM)	–	–	96.4 ± 0.4592%	–
